Measurements published in US9469615B2, “Quinoxalines and AZA-quinoxalines as CRTH2 receptor modulators” (Merck Sharp & Dohme Corp., priority 2010, dated 2016).

Biological target: T1, hCRTH2 (Homo sapiens, UniProt Q9Y5Y4)
T1 construct: expressed in transfected cells; host or cells: HEK (human embryonic kidney) cells expressing hCRTH2; membrane preparation
T1 sequence (Q9Y5Y4 1-395): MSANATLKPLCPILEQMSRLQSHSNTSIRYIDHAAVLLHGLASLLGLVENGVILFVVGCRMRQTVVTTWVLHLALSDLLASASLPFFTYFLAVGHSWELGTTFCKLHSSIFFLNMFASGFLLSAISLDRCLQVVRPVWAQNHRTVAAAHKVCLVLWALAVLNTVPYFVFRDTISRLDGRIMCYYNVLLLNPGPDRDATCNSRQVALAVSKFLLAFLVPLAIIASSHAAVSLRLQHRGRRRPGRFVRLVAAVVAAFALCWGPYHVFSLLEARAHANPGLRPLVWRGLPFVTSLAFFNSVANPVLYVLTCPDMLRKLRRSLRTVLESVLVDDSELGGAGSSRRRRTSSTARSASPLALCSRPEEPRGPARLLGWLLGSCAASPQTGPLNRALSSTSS
Test: Radioligand binding assay ([3H]PGD2 competition, HEK-hCRTH2 membranes)
Conditions: [3H]PGD2 binding
Method in brief: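 Filter-bound radioactivity was counted by scintillation after 60 min incubations at room temperature. Membranes (8-20 μg) from HEK cells expressing hCRTH2 competed test ligands against 3.0 nM [3H]PGD2 in Tris-HCl pH 7.4 buffer with EDTA and 2 mM MnCl2; 10 μM PGD2 set non-specific binding.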

SMILES | Ki (rated A-E (Table A)) | Ki (values in text)
O=C(O)CCCCc1nc2cc(C(=O)N3CCN(S(=O)(=O)c4ccccc4)CC3)ccc2nc1-c1ccccc1 [15o, 5-(3-phenyl-7-{[4-(phenylsulfonyl)piperazin-1-yl]carbonyl}quinoxalin-2-yl)pentanoic acid] | 2.1 to 20 nM | 16.7 nM
O=C(O)CCCCc1nc2cc(C(=O)NCc3cccc(C(F)(F)F)c3)ccc2nc1-c1ccc(Cl)cc1 [16AB, 3-(4-chlorophenyl)-7-[[[[3-(trifluoromethyl)phenyl]methyl]amino]carbonyl]-2-quinoxalinepentanoic acid] | 0.1 to 2 nM | –
O=C(O)CCCCc1nc2cc(C(=O)NCc3cccc(OC(F)(F)F)c3)ccc2nc1-c1ccc(Cl)cc1 [16AC, 3-(4-chlorophenyl)-7-[[[[3-(trifluoromethoxy)phenyl]methyl]amino]carbonyl]-2-quinoxalinepentanoic acid] | 0.1 to 2 nM | –
C[C@@H](NC(=O)c1ccc2nc(-c3ccc(Cl)cc3)c(CCCCC(=O)O)nc2c1)c1ccc(Cl)cc1 [16AD, 3-(4-chlorophenyl)-7-[[[(R)-(4-chlorophenyl)ethyl]amino]carbonyl]-2-quinoxalinepentanoic acid] | 0.1 to 2 nM | –
C[C@H](NC(=O)c1ccc2nc(-c3ccc(Cl)cc3)c(CCCCC(=O)O)nc2c1)c1ccc(Cl)cc1 [16AE, 3-(4-chlorophenyl)-7-[[[1(S)-(4-chlorophenyl)ethyl]amino]carbonyl]-2-quinoxalinepentanoic acid] | 0.1 to 2 nM | –
O=C(O)CCCCc1nc2cc(C(=O)N3CC(c4ccccc4)C3)ccc2nc1-c1ccc(Cl)cc1 [16AF, 3-(4-chlorophenyl)-7-[(3-phenyl-1-azetidinyl)carbonyl]-2-quinoxalinepentanoic acid] | 0.1 to 2 nM | –
O=C(O)CCCCc1nc2cc(C(=O)N3CCN(c4ccccc4)CC3)ccc2nc1-c1ccc(Cl)cc1 [16AG, 3-(4-chlorophenyl)-7-[(4-phenyl-1-piperazinyl)carbonyl]-2-quinoxalinepentanoic acid] | 0.1 to 2 nM | 1.2 nM
O=C(O)CCCCc1nc2cc(C(=O)N[C@H](c3ccccc3)C(F)(F)F)ccc2nc1-c1ccc(Cl)cc1 [16AH, 3-(4-chlorophenyl)-7-[[(2,2,2-trifluoro-1(R)-phenylethyl)amino]carbonyl]-2-quinoxalinepentanoic acid] | 2.1 to 20 nM | –
O=C(O)CCCCc1nc2cc(C(=O)N3CC=C(c4ccccc4)CC3)ccc2nc1-c1ccc(Cl)cc1 [16AJ, 3-(4-chlorophenyl)-7-[(3,6-dihydro-4-phenyl-1(2H)-pyridinyl)carbonyl]-2-quinoxalinepentanoic acid] | 0.1 to 2 nM | –
N#CC1(c2ccccc2)CCN(C(=O)c2ccc3nc(-c4ccc(Cl)cc4)c(CCCCC(=O)O)nc3c2)CC1 [16AK, 3-(4-chlorophenyl)-7-[(4-cyano-4-phenyl-1-piperidinyl)carbonyl]-2-quinoxalinepentanoic acid] | 0.1 to 2 nM | –
C[C@@H](NC(=O)c1ccc2nc(-c3ccc(Cl)cc3)c(CCCCC(=O)O)nc2c1)c1ccccc1 [16AL, 3-(4-chlorophenyl)-7-[[(1(R)-phenylethyl)amino]carbonyl]-2-quinoxalinepentanoic acid] | 0.1 to 2 nM | –
C[C@H](NC(=O)c1ccc2nc(-c3ccc(Cl)cc3)c(CCCCC(=O)O)nc2c1)c1ccccc1 [16AM, 3-(4-chlorophenyl)-7-[[(1-(S)-phenylethyl)amino]carbonyl]-2-quinoxalinepentanoic acid] | 0.1 to 2 nM | –
O=C(O)CCCCc1nc2cc(C(=O)N[C@H]3CCCc4ccccc43)ccc2nc1-c1ccc(Cl)cc1 [16AN, 3-(4-chlorophenyl)-7-[[(1,2,3,4-tetrahydro-1(S)-naphthalenyl)amino]carbonyl]-2-quinoxalinepentanoic acid] | 0.1 to 2 nM | –
O=C(O)CCCCc1nc2cc(C(=O)N[C@H]3CCc4ccccc43)ccc2nc1-c1ccc(Cl)cc1 [16AP, 3-(4-chlorophenyl)-7-[[(2,3-dihydro-1H-inden-1(S)-yl)amino]carbonyl]-2-quinoxalinepentanoic acid] | 0.1 to 2 nM | –
Cc1ccc(CNC(=O)c2ccc3nc(-c4ccc(Cl)cc4)c(CCCCC(=O)O)nc3c2)cc1 [16AQ, 3-(4-chlorophenyl)-7-[[[(4-methylphenyl)methyl]amino]carbonyl]-2-quinoxalinepentanoic acid] | 0.1 to 2 nM | –
O=C(O)CCCCc1nc2cc(C(=O)N[C@@H](CCO)c3ccccc3)ccc2nc1-c1ccc(Cl)cc1 [16AR, 3-(4-chlorophenyl)-7-[[(3-hydroxy-1(S)-phenylpropyl)amino]carbonyl]-2-quinoxalinepentanoic acid] | 2.1 to 20 nM | –
O=C(O)CCCCc1nc2cc(C(=O)NC3Cc4ccccc4C3)ccc2nc1-c1ccc(Cl)cc1 [16AS, 3-(4-ch1orophenyl)-7-[[(2,3-dihydro-1H-inden-2-yl)amino]carbonyl]-2-quinoxalinepentanoic acid] | 0.1 to 2 nM | –

SMILES | Ki (rated A-E (Table A)) | Ki (values in text)
O=C(O)CCCCc1nc2cc(C(=O)NC3CCCc4ccccc43)ccc2nc1-c1ccc(Cl)cc1 (stereo not drawn) [16Ai, 3-(4-chlorophenyl)-7-[[(1,2,3,4-tetrahydro-1-naphthalenyl)amino]carbonyl]-2-quinoxalinepentanoic acid] | 0.1 to 2 nM | –
O=C(O)CCCCc1nc2cc(C(=O)N[C@@H]3CCc4ccccc43)ccc2nc1-c1ccc(Cl)cc1 [16Ao, 3-(4-chlorophenyl)-7-[[(2,3-dihydro-1H-inden-1(R)-yl)amino]carbonyl]-2-quinoxalinepentanoic acid] | 0.1 to 2 nM | 0.4 nM
O=C(O)CCCCc1nc2cc(C(=O)NCc3cccc(Cl)c3)ccc2nc1-c1ccc(Cl)cc1 [16F, 3-(4-chlorophenyl)-7-[[[(3-chlorophenyl)methyl]amino]carbonyl]-2-quinoxalinepentanoic acid] | 0.1 to 2 nM | –
O=C(O)CCCCc1nc2cc(C(=O)NCc3ccccc3)ccc2nc1-c1ccc(Cl)cc1 [16G, 3-(4-chlorophenyl)-7-[[(phenylmethyl)amino]car-bonyl]-2-quinoxalinepentanoic acid] | 0.1 to 2 nM | –
O=C(O)CCCCc1nc2cc(C(=O)N3CCC(c4ccccc4)C3)ccc2nc1-c1ccc(Cl)cc1 (stereo not drawn) [16H, 3-(4-chlorophenyl)-7-[(3-phenyl-1-pyrrolidinyl)carbonyl]-2-quinoxalinepentanoic acid] | 0.1 to 2 nM | –
O=C(O)CCCCc1nc2cc(C(=O)N3CCC(c4ccccc4)CC3)ccc2nc1-c1ccc(Cl)cc1 [16J, 3-(4-chlorophenyl)-7-[(4-phenyl-1-piperidinyl)carbonyl]-2-quinoxalinepentanoic acid] | 2.1 to 20 nM | –
N#Cc1ccc(CNC(=O)c2ccc3nc(-c4ccc(Cl)cc4)c(CCCCC(=O)O)nc3c2)cc1 [16K, 3-(4-chlorophenyl)-7-[[[(4-cyanophenyl)methyl]amino]carbonyl]-2-quinoxalinepentanoic acid] | 0.1 to 2 nM | –
O=C(O)CCCCc1nc2cc(C(=O)N3CC[C@H](c4ccccc4)C3)ccc2nc1-c1ccc(Cl)cc1 [16L, 3-(4-chlorophenyl)-7-[(3(R)-phenyl-1-pyrrolidinyl)carbonyl]-2-quinoxalinepentanoic acid] | 2.1 to 20 nM | –
O=C(O)CCCCc1nc2cc(C(=O)N3CC[C@@H](c4ccccc4)C3)ccc2nc1-c1ccc(Cl)cc1 [16M, 3-(4-chlorophenyl)-7-[(3(S)-phenyl-1-pyrrolidinyl)carbonyl]-2-quinoxalinepentanoic acid] | 0.1 to 2 nM | –
O=C(O)CCCCc1nc2cc(C(=O)N3CCC[C@H](c4ccccc4)C3)ccc2nc1-c1ccc(Cl)cc1 [16N, 3-(4-chlorophenyl)-7-[(3(R)-phenyl-1-piperidinyl)carbonyl]-2-quinoxalinepentanoic acid] | 0.1 to 2 nM | –
O=C(O)CCCCc1nc2cc(C(=O)NCc3ccc(OC(F)(F)F)cc3)ccc2nc1-c1ccc(Cl)cc1 [16P, 3-(4-chlorophenyl)-7-[[[[4-(trifluoromethoxy)phenyl]methyl]amino]carbonyl]-2-quinoxalinepentanoic acid] | 0.1 to 2 nM | –
O=C(O)CCCCc1nc2cc(C(=O)NCc3cc(Cl)cc(Cl)c3)ccc2nc1-c1ccc(Cl)cc1 [16Q, 3-(4-chlorophenyl)-7-[[[(3,5-dichlorophenyl)methyl]amino]carbonyl]-2-quinoxalinepentanoic acid] | 0.1 to 2 nM | –
O=C(O)CCCCc1nc2cc(C(=O)NCc3ccc(F)cc3)ccc2nc1-c1ccc(Cl)cc1 [16R, 3-(4-chlorophenyl)-7-[[[(4-fluorophenyl)methyl]amino]carbonyl]-2-quinoxalinepentanoic acid] | 0.1 to 2 nM | –
C[C@@H](NC(=O)c1ccc2nc(-c3ccc(Cl)cc3)c(CCCCC(=O)O)nc2c1)c1ccc(F)cc1 [16S, 3-(4-chlorophenyl)-7-[[[1(R)-(4-fluorophenyl)ethyl]amino]carbonyl]-2-quinoxalinepentanoic acid] | 0.1 to 2 nM | 0.7 nM
C[C@H](NC(=O)c1ccc2nc(-c3ccc(Cl)cc3)c(CCCCC(=O)O)nc2c1)c1ccc(F)cc1 [16T, 3-(4-chlorophenyl)-7-[[[1(S)-(4-fluorophenyl)ethyl]amino]carbonyl]-2-quinoxalinepentanoic acid] | 0.1 to 2 nM | –
O=C(O)CCCCc1nc2cc(C(=O)NCc3ccc(C(F)(F)F)cc3)ccc2nc1-c1ccc(Cl)cc1 [16U, 3-(4-chlorophenyl)-7-[[[[4-(trifluoromethyl)phenyl]methyl]amino]carbonyl]-2-quinoxalinepentanoic acid] | 0.1 to 2 nM | –
O=C(O)CCCCc1nc2cc(C(=O)N[C@H](c3ccc(Cl)cc3)C(F)(F)F)ccc2nc1-c1ccc(Cl)cc1 [16V, 3-(4-chlorophenyl)-7-[[[1(R)-(4-chlorophenyl)-2,2,2-trifluoroethyl]amino]carbonyl]-2-quinoxalinepentanoic acid] | 0.1 to 2 nM | 2.7 nM
